Test results as given in ChEMBL document CHEMBL1159360, “Bioactive asterosaponins from the starfish Luidia quinaria and Psilaster cassiope. Isolation and structure characterization by two-dimensional NMR spectroscopy” (J Nat Prod, 2003).
The source made the active and inactive calls. The calls are words filed in the database; no cut-off is given here.

Columns and labels:
C6 = assay: Cytotoxicity against rat C6 after 24 hrs by MTT assay; assay type: functional, cell-based
RBL-2H3 = assay: Cytotoxicity against rat RBL2H3 after 24 hrs by MTT assay; assay type: functional, cell-based; details: RBL-2H3, 24 h

`CC(C)CC(=O)C[C@](C)(O)[C@H]1CC[C@H]2[C@@H]3C[C@H](O[C@@H]4O[C@H](C)[C@@H](O)[C@H](O[C@@H]5OC[C@@H](O[C@@H]6O[C@H](CO)[C@H](O)[C@H](O)[C@H]6O[C@@H]6O[C@H](C)[C@H](O)[C@H](O[C@@H]7O[C@@H](CO)[C@H](O)[C@H]7O)[C@H]6O)[C@H](O)[C@H]5O[C@@H]5O[C@H](C)[C@@H](O)[C@H](O)[C@H]5O)[C@H]4O)[C@H]4C[C@@H](OS(=O)(=O)[O-])CC[C@]4(C)C3=CC[C@@]21C.[Na+]` [PSILASTEROSIDE] was tested, and the Activity (C6) was “inactive” and the IC50 (RBL-2H3) was 5.4 µg/mL.
With `CC(C)CC(=O)C[C@](C)(O)[C@H]1CC[C@H]2[C@@H]3C[C@H](O[C@@H]4O[C@H](C)[C@@H](O)[C@H](O[C@@H]5O[C@H](CO)[C@@H](O[C@@H]6O[C@H](C)[C@@H](O)[C@H](O)[C@H]6O[C@@H]6O[C@H](C)[C@H](O)[C@H](O)[C@H]6O)[C@H](O)[C@H]5O[C@@H]5O[C@H](C)[C@@H](O)[C@H](O)[C@H]5O)[C@H]4O)[C@H]4C[C@@H](OS(=O)(=O)[O-])CC[C@]4(C)C3=CC[C@@]21C.[Na+]` [LUIDIAQUINOSIDE] the Activity (C6) was “inactive” and the IC50 (RBL-2H3) was 31.3 µg/mL.
